Results from US20230265151A1, “GIP/GLP1 CO-AGONIST COMPOUNDS” (priority 2020, published 2023).
Read-outs that look alike come from different tables or passages of the source. *1 amine or outer side, *2 acyl side, *3 side chain or, on linkers, in order; H or OH if unused. Where a SMILES comes first, the peptide text is derived from it. Side-chain parts run from the residue outwards. [ ]: non-standard residue; d: D form. The star is where a group is joined. αMePhe(2-F) = C[C@](N)(Cc1ccccc1F)C(=O)O; γGlu = O=C(O)[C@H](CCC(=O)[*:2])N[*:1]; αMeY = C[C@](N)(Cc1ccc(O)cc1)C(=O)O; αMeF = C[C@](N)(Cc1ccccc1)C(=O)O; αMeL = CC(C)C[C@](C)(N)C(=O)O; Lauroyl = CCCCCCCCCCCC(=O)*; Orn = NCCC[C@H](N)C(=O)O; AEEA = NCCOCCOCC(=O)O; Aib = CC(C)(N)C(=O)O

Columns and labels:
Type in all cases: cell-based
hGLP-1R = hGLP-1R (Homo sapiens, UniProt P43220); experiment: Functional cAMP formation (HTRF) in HEK-293 clonal cells expressing hGLP-1R, 0.1% bovine casein, without or with 1.0% human serum albumin; parameters: expressed in transfected cells; conditions: for EC50: 37° C., geometric mean
Sequence of hGLP-1R (P43220 24-463): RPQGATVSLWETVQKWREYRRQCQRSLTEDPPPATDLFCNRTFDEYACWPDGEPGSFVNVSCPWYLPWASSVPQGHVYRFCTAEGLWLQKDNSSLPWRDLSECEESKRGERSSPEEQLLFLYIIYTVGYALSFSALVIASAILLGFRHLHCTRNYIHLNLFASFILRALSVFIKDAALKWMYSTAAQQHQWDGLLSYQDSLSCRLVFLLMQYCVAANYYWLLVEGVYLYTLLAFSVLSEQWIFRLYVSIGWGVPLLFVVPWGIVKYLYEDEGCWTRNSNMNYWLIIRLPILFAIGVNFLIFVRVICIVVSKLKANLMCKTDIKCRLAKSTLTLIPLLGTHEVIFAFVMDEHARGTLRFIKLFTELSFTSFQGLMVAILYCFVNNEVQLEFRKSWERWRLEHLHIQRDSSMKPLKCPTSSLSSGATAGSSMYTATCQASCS
Procedure, shortened: (§1)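 Readings of the HTRF 665/620 nm ratio, which falls as cAMP rises, were converted to nM cAMP using a standard curve after 30 min peptide exposure at 37° C.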

hGIPR = target: T1, hGIPR (Homo sapiens, UniProt P48546); experiment: Functional cAMP formation (HTRF) in HEK-293 clonal cells expressing hGIPR, 0.1% bovine casein, without or with 1.0% human serum albumin; conditions: for Emax: percent of maximal response to GIP(1-42)NH2; for EC50: 37° C.
T1 construct: expressed in transfected cells
T1 sequence (P48546 22-466): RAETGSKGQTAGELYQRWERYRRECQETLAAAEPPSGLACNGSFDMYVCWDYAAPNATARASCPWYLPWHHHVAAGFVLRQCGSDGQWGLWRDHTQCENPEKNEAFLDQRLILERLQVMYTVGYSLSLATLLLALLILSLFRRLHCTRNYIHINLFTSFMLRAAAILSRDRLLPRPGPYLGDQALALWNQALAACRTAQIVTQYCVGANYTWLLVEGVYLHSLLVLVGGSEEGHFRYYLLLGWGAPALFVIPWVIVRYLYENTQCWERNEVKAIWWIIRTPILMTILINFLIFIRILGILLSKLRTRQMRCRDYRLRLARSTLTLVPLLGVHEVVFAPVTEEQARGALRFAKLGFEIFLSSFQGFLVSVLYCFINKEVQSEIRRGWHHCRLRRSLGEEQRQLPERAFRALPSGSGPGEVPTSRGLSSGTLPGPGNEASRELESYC
Procedure, shortened: as §1

hGCGR = target: T2, hGCGR (Homo sapiens, UniProt P47871); experiment: Functional cAMP formation (HTRF) in HEK-293 clonal cells expressing hGCGR, 0.1% bovine casein, without or with 1.0% human serum albumin; conditions: 37° C.
T2 construct: expressed in transfected cells
T2 sequence (P47871 26-477): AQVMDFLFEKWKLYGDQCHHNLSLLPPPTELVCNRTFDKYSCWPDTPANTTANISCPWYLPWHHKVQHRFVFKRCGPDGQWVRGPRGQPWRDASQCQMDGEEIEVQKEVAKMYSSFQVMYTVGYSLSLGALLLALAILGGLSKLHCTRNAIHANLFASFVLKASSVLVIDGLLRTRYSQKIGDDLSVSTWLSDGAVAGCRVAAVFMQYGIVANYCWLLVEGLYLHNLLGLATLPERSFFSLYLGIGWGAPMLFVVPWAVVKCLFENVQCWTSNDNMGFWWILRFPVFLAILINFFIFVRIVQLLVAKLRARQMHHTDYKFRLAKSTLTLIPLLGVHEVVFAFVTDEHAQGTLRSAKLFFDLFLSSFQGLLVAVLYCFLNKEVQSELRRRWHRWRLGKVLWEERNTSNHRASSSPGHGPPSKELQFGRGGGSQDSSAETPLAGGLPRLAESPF
Procedure, shortened: as §1

[1] = hGLP-1R EC50, nM (SEM, n), cAMP, 0.1% bovine casein (no human serum albumin)
[2] = HEK293, read-out: hGIPR Emax, % ± SEM, cAMP, 37° C., 0.1% bovine casein and 1.0% human serum albumin
[3] = HEK293, read-out: hGIPR Emax, % ± SEM, cAMP, 37° C., 0.1% bovine casein, arithmetic mean
[4] = hGIPR EC50, nM (SEM, n), cAMP, 0.1% bovine casein (no human serum albumin), geometric mean
[5] = hGIPR EC50, nM (SEM, n), cAMP, 0.1% bovine casein and 1.0% human serum albumin, geometric mean (SEM, n)
[6] = hGCGR EC50, nM (SEM, n), cAMP, 0.1% bovine casein (no human serum albumin), geometric mean
[7] = hGCGR EC50, nM (SEM, n), cAMP, 0.1% bovine casein and 1.0% human serum albumin, geometric mean (SEM, n)

| EC50 (hGLP-1R; 0.1% bovine casein and 1.0% human serum albumin, read-out: hGLP-1R EC50, nM (SEM, n)) | EC50 (hGLP-1R; cAMP, 0.1% bovine casein (no human serum albumin), read-out: hGLP-1R EC50, nM (SEM, n)) | EC50 (hGIPR; 0.1% bovine casein and 1.0% human serum albumin, geometric mean, read-out: hGIPR EC50, nM (SEM, n)) | EC50 (hGIPR; cAMP, 0.1% bovine casein (no human serum albumin), geometric mean, read-out: hGIPR EC50, nM (SEM, n)) | EC50 (hGCGR; 0.1% bovine casein and 1.0% human serum albumin, geometric mean, read-out: hGCGR EC50, nM (SEM, n)) | EC50 (hGCGR; cAMP, 0.1% bovine casein (no human serum albumin), geometric mean, read-out: hGCGR EC50, nM (SEM, n)) | Structure (SMILES) | EC50 (hGLP-1R; [1]) | Emax (hGIPR; [2]) | Emax (hGIPR; [3]) | EC50 (hGIPR; [4]) | EC50 (hGIPR; [5]) | EC50 (hGCGR; [6]) | EC50 (hGCGR; [7]) | Emax (hGLP-1R; HEK293, read-out: hGLP-1R Emax, % ± SEM, cAMP, 37° C., 0.1% bovine casein and 1.0% human serum albumin, percent of maximal response to GLP-1(7-36)NH2) |
| --- | --- | --- | --- | --- | --- | --- | --- | --- | --- | --- | --- | --- | --- | --- |
| – | – | – | – | – | – | CC[C@H](C)[C@H](NC(=O)[C@H](CC(C)C)NC(=O)[C@](C)(Cc1ccc(O)cc1)NC(=O)[C@@H](CCC(=O)O)NC(=O)[C@@H](NC(=O)[C@H](Cc1ccccc1)NC(=O)[C@H](CCC(=O)O)NC(=O)C(C)(C)NC(=O)[C@H](CCC(N)=O)NC(=O)[C@H](C)NC(=O)[C@H](CCCCNC(=O)COCCOCCNC(=O)CC[C@H](NC(=O)CCCCCCCCCOc1ccc(C(=O)O)cc1)C(=O)O)NC(=O)[C@H](CCCN)NC(=O)[C@H](CC(=O)O)NC(=O)[C@H](CC(C)C)NC(=O)[C@](C)(CC(C)C)NC(=O)[C@@H](NC(=O)C(C)(C)NC(=O)[C@@H](NC(=O)[C@H](CC(=O)O)NC(=O)[C@H](CO)NC(=O)[C@@H](NC(=O)[C@](C)(Cc1ccccc1F)NC(=O)[C@@H](NC(=O)CNC(=O)[C@H](CCC(=O)O)NC(=O)C(C)(C)NC(=O)[C@@H](N)Cc1ccc(O)cc1)[C@@H](C)O)[C@@H](C)O)C(C)C)[C@@H](C)CC)[C@@H](C)CC)C(=O)N[C@@H](CCCCNC(=O)COCCOCCNC(=O)CC[C@H](NC(=O)CCCCCCCCCOc1ccc(C(=O)O)cc1)C(=O)O)C(=O)NCC(=O)NCC(=O)N1CCC[C@H]1C(=O)N[C@@H](CO)C(=O)N[C@@H](CO)C(=O)NCC(=O)N[C@@H](C)C(=O)N1CCC[C@H]1C(=O)N1CCC[C@H]1C(=O)N1CCC[C@H]1C(=O)N[C@@H](CO)C(N)=O [Example 379] | 0.171 nM | 90% | 97.5% | 0.0167 nM | 11.6 nM | > 9950 nM | > 9950 nM | – |
| – | – | – | – | – | – | CC[C@H](C)[C@H](NC(=O)[C@H](CCCN)NC(=O)[C@H](CC(=O)O)NC(=O)[C@H](CC(C)C)NC(=O)[C@](C)(CC(C)C)NC(=O)[C@@H](NC(=O)C(C)(C)NC(=O)[C@H](Cc1ccc(O)cc1)NC(=O)[C@H](CC(=O)O)NC(=O)[C@H](CO)NC(=O)[C@@H](NC(=O)[C@](C)(Cc1ccccc1F)NC(=O)[C@@H](NC(=O)CNC(=O)[C@H](CCC(=O)O)NC(=O)C(C)(C)NC(=O)[C@@H](N)Cc1ccc(O)cc1)[C@@H](C)O)[C@@H](C)O)[C@@H](C)CC)C(=O)N[C@@H](C)C(=O)N[C@@H](CCC(N)=O)C(=O)NC(C)(C)C(=O)N[C@@H](CCC(=O)O)C(=O)N[C@@H](Cc1ccccc1)C(=O)N[C@H](C(=O)N[C@@H](CCCCNC(=O)COCCOCCNC(=O)CC[C@H](NC(=O)CCCCCCCCCOc1ccc(C(=O)O)cc1)C(=O)O)C(=O)N[C@@](C)(Cc1ccc(O)cc1)C(=O)N[C@@H](CC(C)C)C(=O)N[C@H](C(=O)N[C@@H](CCCCNC(=O)COCCOCCNC(=O)CC[C@H](NC(=O)CCCCCCCCCOc1ccc(C(=O)O)cc1)C(=O)O)C(=O)NCC(=O)NCC(=O)N1CCC[C@H]1C(=O)N[C@@H](CO)C(=O)N[C@@H](CO)C(=O)NCC(=O)N[C@@H](C)C(=O)N1CCC[C@H]1C(=O)N1CCC[C@H]1C(=O)N1CCC[C@H]1C(=O)N[C@@H](CO)C(N)=O)[C@@H](C)CC)[C@@H](C)CC [Example 375] | 1.11 nM | 85.4% | 100% | 0.0566 nM | 4.68 nM | > 9950 nM | > 9950 nM | 113% |
| – | – | – | – | – | – | CC[C@H](C)[C@H](NC(=O)[C@H](CC(C)C)NC(=O)[C@](C)(Cc1ccc(O)cc1)NC(=O)[C@@H](CCC(=O)O)NC(=O)[C@@H](NC(=O)[C@H](Cc1ccccc1)NC(=O)[C@H](CCCCNC(=O)COCCOCCNC(=O)CC[C@H](NC(=O)CCCCCCCCCOc1ccc(C(=O)O)cc1)C(=O)O)NC(=O)C(C)(C)NC(=O)[C@H](CCC(N)=O)NC(=O)[C@H](C)NC(=O)[C@H](CCCCNC(=O)COCCOCCNC(=O)CC[C@H](NC(=O)CCCCCCCCCOc1ccc(C(=O)O)cc1)C(=O)O)NC(=O)[C@H](CCCN)NC(=O)[C@H](CC(=O)O)NC(=O)[C@H](CC(C)C)NC(=O)[C@](C)(CC(C)C)NC(=O)[C@@H](NC(=O)C(C)(C)NC(=O)[C@H](Cc1ccc(O)cc1)NC(=O)[C@H](CC(=O)O)NC(=O)[C@H](CO)NC(=O)[C@@H](NC(=O)[C@](C)(Cc1ccccc1F)NC(=O)[C@@H](NC(=O)CNC(=O)[C@H](CCC(=O)O)NC(=O)C(C)(C)NC(=O)[C@@H](N)Cc1ccc(O)cc1)[C@@H](C)O)[C@@H](C)O)[C@@H](C)CC)[C@@H](C)CC)C(=O)N[C@@H](CCC(=O)O)C(=O)NCC(=O)NCC(=O)N1CCC[C@H]1C(=O)N[C@@H](CO)C(=O)N[C@@H](CO)C(=O)NCC(=O)N[C@@H](C)C(=O)N1CCC[C@H]1C(=O)N1CCC[C@H]1C(=O)N1CCC[C@H]1C(=O)N[C@@H](CO)C(N)=O [Example 372] | 0.291 nM | 90.6% | 97.3% | 0.0112 nM | – | > 9950 nM | > 9950 nM | – |
| 19.1 nM | 0.125 nM | 1.54 nM | 0.0112 nM | > 9950 nM | > 9950 nM | CCCCCCCCCCCC(=O)N[C@@H](CCC(=O)NCCOCCOCC(=O)NCCOCCOCC(=O)NCCCC[C@H](NC(=O)[C@H](CCCN)NC(=O)[C@H](CC(=O)O)NC(=O)[C@H](CC(C)C)NC(=O)[C@](C)(CC(C)C)NC(=O)[C@@H](NC(=O)[C@H](CO)NC(=O)[C@H](CCCCNC(=O)COCCOCCNC(=O)COCCOCCNC(=O)CC[C@H](NC(=O)CCCCCCCCCCC)C(=O)O)NC(=O)[C@H](CC(=O)O)NC(=O)[C@H](CO)NC(=O)[C@@H](NC(=O)[C@](C)(Cc1ccccc1F)NC(=O)[C@@H](NC(=O)CNC(=O)[C@H](CCC(=O)O)NC(=O)C(C)(C)NC(=O)[C@@H](N)Cc1ccc(O)cc1)[C@@H](C)O)[C@@H](C)O)[C@@H](C)CC)C(=O)N[C@@H](C)C(=O)N[C@@H](CCC(N)=O)C(=O)NC(C)(C)C(=O)N[C@@H](CCC(=O)O)C(=O)N[C@@](C)(Cc1ccccc1)C(=O)N[C@H](C(=O)N[C@H](CCC(=O)O)C(=O)N[C@@](C)(Cc1ccc(O)cc1)C(=O)N[C@@H](CC(C)C)C(=O)N[C@H](C(=O)N[C@@H](CCC(=O)O)C(=O)NCC(=O)NCC(N)=O)[C@@H](C)CC)[C@@H](C)CC)C(=O)O [Example 297] (H-Y[Aib]EGT[αMePhe(2-F)]TSDK([AEEA-AEEA-γGlu-Lauroyl])SI[αMeL]LD[Orn]K([AEEA-AEEA-γGlu-Lauroyl])AQ[Aib]E[αMeF]I[dE][αMeY]LIEGG-NH2) | – | – | – | – | – | – | – | – |
